Data as given in patent US20090082304A1, “Methods of Treating Hematological Malignancies with Nucleoside Analog Drugs” (NORTHWESTERN UNIVERSITY, priority 2004, published 2009).

What was measured:
[1] = test system: Akt kinase; assay: Immunoblot of phospho-Akt in MM.1 S cells; assay type: cell-based; conditions: data not shown; for phospho-Akt: dextrose-free media, ATP depletion, 90 minutes; for phosphorylation of Akt: 4 hours
Method: (§1) 5×10^6 were cells treated with 10 μM 8-NH2-Ado for the indicated times and harvested. Cell pellets were washed with cold phosphate-buffered saline (PBS; 8.1 g NaCl, 1.14 g Na2HPO4, 0.22 g KCl, and 0.25 g/L KH2PO4) and incubated with lysis buffer (50 mM HEPES, 150 mM NaCl, 1.5 mM MgCl2, 1 mM EDTA pH 8.0, 100 mM NaFI, 10 mM Na Pyrophosphate, 500 μM PMSF, 0.5% Triton X-100, 10% glycerol) at 4° C. for one hour. Lysates were centrifuged at 4° C. for 1 minute at 9000×g, and the supernatants were collected and stored at −20° C. Protein concentration was determined by Bio-Rad protein assay (BioRad Laboratories, Hercules, Calif.). Protein, at a concentration of 30 μg, was mixed with sample buffer (125 mM Tris, pH 6.8, 4% SDS, 20% glycerol, 100 mM Dithiothreitol (DTT), and 0.05% bromophenol blue), and fractionated on a pre-cast 8-16% Tris-Glycine gel (Invitrogen/Novex, Carlsbad, Calif.). Proteins were then transferred to a Polyvinylidene Fluoride (PVDF) membrane (Immobilon-P, Millipore, Bedford, Mass.): Following protein transfer, membranes were blocked with 5% non-fat milk in PBS-T (PBS with 0.1% Tween), incubated with the primary antibody overnight at 4° C. and subsequently with horseradish peroxidase linked secondary antibody (Amersham, Arlington Heights, Ill.). Blots were developed using ECL Plus Chemiluminescent Western Blotting Detection reagent (Amersham, Arlington Heights, Ill.) and the signal was visualized with X-ray film (Hyperfilm, Amersham, Arlington Heights, Ill.). For reprobing purposes, blots were stripped using Restore Western Blot Stripping Buffer from Pierce Biotechnology (Rockford, Ill.). Phospho-MKK3/6 (Ser189/207), phospho-p38 (Thr180/Tyr182), phospho-ATF-2 (Thr69/71), phospho-c-Raf (Ser259), phospho-MEK1/2 (Ser217/221), total MEK1/2, phospho-ERK1/2 (Thr202/Tyr204), total ERK1/2, phospho-p90RSK (Ser380), total RSK, phospho-PDK1 (Ser241), total PDKI, phospho-PTEN (Ser380), total PTEN, phospho-Akt (Ser473), total Akt, phospho-GSK-3β (Ser9), total GSK-3β, phospho-FKHRLI (Thr32)/-FKHR (Thr24), phospho-FKHR (Ser256) primary antibodies were obtained from Cell Signaling Technology (Beverly, Mass.). Total MKK3, total MKK6, total p38, total ATF-2, total c-Raf, total FKHR, total FKHRLI, phospho-JNK and total JNK were purchased from Santa Cruz Biotechnology (Santa Cruz, Calif.). Caspase 3, caspase 9, and PARP antibodies were obtained from Pharmingen (San Diego, Calif.) and anti-MKP1 from Upstate (Lake Placid, N.Y.). Anti-caspase 8 mouse serum was a generous gift of Dr. Marcus Peter (University of Chicago).
(§2) MM.1 S cells were exposed to 10 μM 8-NH2-Ado for 0, 0.5, 1, 2, 4 and 6 hours, after which cells were lysed as previously (Example 2). 30 μg of protein was separated by gel electrophoresis, transferred to PVDF membrane, and probed with phosphorylation-specific antibodies to MKK3/6, p38 MAPK, ATF-2, MEK1/2, ERK1/2, p90RSK, JNK1, PDK1, Akt, FKHRL1 and GSK-3β.
(§3) MM. I S cells were treated with 10 μM 8-chloro-adenosine for 0, 0.5, 1, 2, 4 or 6 hours or 10 μM of cytarabine, fludarabine, gemcitabine or 8-amino-adenosine for 4 hours. Cells were lysed as previously described and 30 μg of protein was separated by gel electrophoresis, transferred to PVDF membrane, and probed with phospho-p38 MAPK (Thr180/Tyr182) antibody.
(§4) MM.1 S cells were grown in dextrose-free media and treated with 2 μM Antimycin A, 5 mM 2-DOG, and varying concentrations of dextrose for 90 minutes. Cellular ATP levels were determined using triplicate samples in a luciferase based assay and are expressed here as a percentage of untreated control.

[2] = test system: ERK1/2; assay: Immunoblot of phospho-ERK1/2 in MM.1 S cells; assay type: cell-based; conditions: data not shown; for phospho-ERK1/2: dextrose-free media, ATP depletion, 90 minutes; for phosphorylation of ERK1/2: 4 hours
Method: as §1, §2, §3, §4

[3] = test system: p38 MAPK; assay: Immunoblot of phospho-p38 MAPK in MM.1 S cells; assay type: cell-based
Method: as §1
as §2, with “GSK-3β. […] FIGS. 1A, 1B, 1C and 1D provide the results of the blots.” for “GSK-3β.”
as §3
In a parallel approach to test the involvement of cellular phosphatases, we treated MM.1 S cells with varying concentrations of the phosphatase inhibitor okadaic acid in combination with 8-NH2-Ado for 4 hours to assess whether the serine/threonine phosphatases PP2A and PPI are involved.

[4] = test system: MM cells; conditions: cited from earlier work
[5] = test system: MM cells; conditions: MM cells, previously shown; cited from earlier work

Compound: O=CC[C@@H](O)[C@H](O)[C@H](O)CO [2-DOG, 2-deoxy-D-glucose]
- phospho-Akt [1]: did not reveal a decrease in phosphorylation
- phospho-ERK1/2 [2]: did not reveal a decrease in phosphorylation

Compound: Nc1ncnc2c1nc(Cl)n2[C@@H]1O[C@H](CO)[C@@H](O)[C@H]1O [8-chloro-adenosine]
- phosphorylation status of Akt kinase ([1]; 10 μM, time course 0-6 hours): does not reveal any effect
- phosphorylation status of p38 ([3]; 10 μM, time course 0-6 hours): does not reveal any effect
- phosphorylation status of ERK1/2 ([2]; 10 μM, time course 0-6 hours): does not reveal any effect
- apoptosis [4]: induces apoptosis

Compound: Nc1nc(F)nc2c1ncn2[C@@H]1O[C@H](CO)[C@@H](O)[C@@H]1O [Fludarabine]
- cytotoxicity [5]: cytotoxic

Compound: Nc1ccn([C@@H]2O[C@H](CO)[C@@H](O)[C@@H]2O)c(=O)n1 [cytarabine]
- phosphorylation of Akt ([1]; 10 μM): do not cause a decrease
- cytotoxicity [5]: cytotoxic
- phosphorylation of p38 ([3]; 10 μM, 4 hours): do not cause a decrease
- phosphorylation of ERK1/2 ([2]; 10 μM): do not cause a decrease

Compound: Nc1ccn([C@@H]2O[C@H](CO)[C@@H](O)C2(F)F)c(=O)n1 [gemcitabine]
- phosphorylation of Akt ([1]; 10 μM): do not cause a decrease
- cytotoxicity [5]: cytotoxic
- phosphorylation of p38 ([3]; 10 μM, 4 hours): do not cause a decrease
- phosphorylation of ERK1/2 ([2]; 10 μM): do not cause a decrease

Compound: C=C1[C@@H](O)[C@@H]2O[C@]3(CC[C@H](/C=C/[C@@H](C)[C@@H]4CC(C)=C[C@@]5(O[C@H](C[C@@](C)(O)C(=O)O)CC[C@H]5O)O4)O3)CC[C@H]2O[C@@H]1[C@@H](O)C[C@H](C)[C@H]1O[C@@]2(CCCCO2)CC[C@H]1C [okadaic acid]
- phospho-p38 in the presence of 8-NH2-Ado ([3]; 30 nM okadaic acid in combination with 8-NH2-Ado, 4 hours): partial recovery of phosphorylation
- phospho-p38 levels ([3]; 30 nM okadaic acid with 10 μM 8-NH2-Ado, at 6 hours): still present
- 8-NH2-Ado-induced loss of p38 phosphorylation ([3]; 30 nM okadaic acid with 10 μM 8-NH2-Ado, time course): significantly delays

Compound: Antimycin A
- phospho-Akt [1]: did not reveal a decrease in phosphorylation
- phospho-ERK1/2 [2]: did not reveal a decrease in phosphorylation
